This is an account of results in US20060134602A1, “Methods of identifying cytotoxic effects in quiescent cells” (priority 2004, published 2006).

Data set [1] has as its system quiescent IMR-90 human lung fibroblasts. As to the kind of experiment: cells. The procedure:
Quantitation of Cytotoxicity: A luciferase assay kit was used to quantitate the amount of ATP produced by cells in each well to measure cytotoxicity of the compounds. The assay utilizes the enzyme luciferase which catalyses a reaction of ATP and luciferin to form light. The light produced is measured to determine the amount of ATP produced by the cells in each well. The higher the cell mortality in each well, the less ATP, and consequently, the less light will be produced. […] Wells in rows one and two, which contained no compound, were controls.
Preparation of Quiescent Cells: A 96 well plate was plated at 0.8×10^4 cells/well in 200 μL of growth medium (MEM with Earle's salt) with IMR-90 human lung fibroblasts. The cells were incubated at 37° C. for four days.
The media was removed from the wells, and each well was washed twice with 200 μL of MEM with Earle's salt and no serum. 90 μL/well of MEM with Earle's salt media containing sodium pyruvate, non-essential amino acids, L-glutamine and 0.1% fetal bovine serum was added to each well, and the cells were incubated for one day at 37° C.
10 μL of carbonyl cyanide (a positive control for cytotoxicity) stock solutions were added to rows one and two to obtain concentrations of 0 μM, 0.003 μM, 0.01 μM, 0.03 μM, 0.1 μM, 0.3 μM, 1.0 μM, 3.0 μM, 10.0 μM, 30.0 μM, and 100.0 μM in wells 2 through 12. 10 μL of stock solution of test compounds were added to duplicate row to obtain concentrations of 0 μM, 0.003 μM, 0.01 μM, 0.03 μM, 0.1 μM, 0.3 μM, 1.0 μM, 3.0 μM, 10.0 μM, 30.0 μM, and 100.0 μM in wells 2 through 12. The first well in each row contained no cells. […] The cells were incubated with the test compounds for 24 hours, 48 hours, or 72 hours.

Data set [2] concerns proliferating cancer cells. The conditions noted are these: cited from earlier work.
The mark [3] stands for this setting: read-out: IC50, 24 hours, quiescent IMR-90 human lung fibroblasts, 24 hours incubation.
Where [4] appears, read: read-out: IC50, 48 hours, quiescent IMR-90 human lung fibroblasts, 48 hours incubation.
Where [5] appears, read: read-out: IC50, 72 hours, quiescent IMR-90 human lung fibroblasts, 72 hours incubation.
The mark [6] stands for this setting: Homo sapiens, IMR-90, 24 h, read-out: IC50, 24 hours, quiescent IMR-90 human lung fibroblasts, 24 hours incubation.
Where [7] appears, read: Homo sapiens, IMR-90, 48 h, read-out: IC50, 48 hours, quiescent IMR-90 human lung fibroblasts, 48 hours incubation.
The mark [8] stands for this setting: Homo sapiens, IMR-90, 72 h, read-out: IC50, 72 hours, quiescent IMR-90 human lung fibroblasts, 72 hours incubation.

Usually IC50 stands for the concentration that gives 50% inhibition.

Like-named read-outs stand apart in the source and are kept apart here. *1 amine or outer side, *2 acyl side, *3 side chain or, on linkers, in order; H or OH if unused. Where a SMILES comes first, the peptide text is derived from it. Bridges are numbered along the chain shown (N, C = ends). Roman numbers before positions name the chains, in order. [ ]: non-standard residue; d: D form. Actinocin(9to1) = Cc1c2oc3c(C)ccc(C(=O)[*:1])c3nc-2c(C(=O)[*:2])c(N)c1=O; NMeV = CN[C@H](C(=O)O)C(C)C; Sar = CNCC(=O)O Where only a bound is given, the exact number is not on record here.

Turning to `O=c1[nH]cc(F)c(=O)[nH]1` [5-FU, 5-fluorouricil], the IC50 in data set [1] (setting [3]), in data set [1] (setting [4]) and in data set [1] (setting [5]) was greater than 10 µM each time.

Regarding `Cc1c2oc3c(C)ccc(C(=O)N[C@@H]4C(=O)N[C@H](C(C)C)C(=O)N5CCC[C@H]5C(=O)N(C)CC(=O)N(C)[C@@H](C(C)C)C(=O)O[C@@H]4C)c3nc-2c(C(=O)N[C@@H]2C(=O)N[C@H](C(C)C)C(=O)N3CCC[C@H]3C(=O)N(C)CC(=O)N(C)[C@@H](C(C)C)C(=O)O[C@@H]2C)c(N)c1=O` [Atinomycin D, actinomycin D] (I: T[dV]P[Sar][NMeV] / II: T[dV]P[Sar][NMeV]; ester I:1-I:C, II:1-II:C; linker I:N-II:N via Actinocin(9to1)), the “time dependence of cytotoxicity against quiescent fibroblasts” value in data set [1] is reported as “time-dependent increases in cytotoxicity”. In addition, the IC50 in data set [1] (setting [3]) is greater than 10 µM; in data set [1] (setting [4]), greater than 10 µM; in data set [1] (setting [5]), 3.1 µM.

Take `COc1cccc2c1C(=O)c1c(O)c3c(c(O)c1C2=O)C[C@@](O)(C(=O)CO)C[C@@H]3O[C@H]1C[C@H](N)[C@H](O)[C@H](C)O1` [Doxorubicin, doxorubicin]: the “time dependence of cytotoxicity against quiescent fibroblasts” value in data set [1] is “time-dependent increases in cytotoxicity”. The figures for the IC50 in data set [1] (setting [6]), in data set [1] (setting [7]) and in data set [1] (setting [8]) were greater than 10 µM, 5.3 µM and 2.5 µM, respectively.

On to `COc1cc([C@@H]2c3cc4c(cc3[C@@H](O[C@@H]3O[C@@H]5CO[C@@H](C)O[C@H]5[C@H](O)[C@H]3O)[C@H]3COC(=O)[C@H]23)OCO4)cc(OC)c1O` [Etoposide, etoposide], for which the IC50 in data set [1] (setting [6]), in data set [1] (setting [7]) and in data set [1] (setting [8]) was greater than 10 µM in each case.

As for `Nc1ccn([C@@H]2O[C@H](CO)[C@@H](O)C2(F)F)c(=O)n1` [Gemcitabine, gemcitabine], the IC50 in data set [1] (setting [6]), in data set [1] (setting [7]) and in data set [1] (setting [8]) was greater than 10 µM each time.

Regarding `CO[C@@]12[C@H](COC(N)=O)C3=C(C(=O)C(C)=C(N)C3=O)N1C[C@@H]1N[C@@H]12` [Mitomycin C, mitomycin C], the figures for the IC50 in data set [1] (setting [3]), in data set [1] (setting [4]) and in data set [1] (setting [5]) were greater than 10 µM, greater than 10 µM and 5 µM, respectively.

As for `O=C1[O][Pt]2([NH][C@@H]3CCCC[C@H]3[NH]2)[O]C1=O` [Oxaliplatin, oxaliplatin], the IC50 in data set [1] (setting [3]), in data set [1] (setting [4]) and in data set [1] (setting [5]) was greater than 10 µM throughout.

For `CC(=O)O[C@H]1C(=O)[C@@]2(C)[C@H]([C@H](OC(=O)c3ccccc3)[C@]3(O)C[C@H](OC(=O)[C@H](O)[C@@H](NC(=O)c4ccccc4)c4ccccc4)C(C)=C1C3(C)C)[C@]1(OC(C)=O)CO[C@@H]1C[C@@H]2O` [Paclitaxel, paclitaxel], the IC50 in data set [1] (setting [6]) was greater than 10 µM; in data set [1] (setting [7]), greater than 10 µM; in data set [1] (setting [8]) it was 8.5 µM; in data set [1] (setting [5]), 10 µM. Besides, the “concentration at which cytotoxic to quiescent fibroblasts” value in data set [1] (human, 72 h) is on record as “approximately 10 μM”. Further, in data set [2], the “concentration inhibiting cancer cell growth” value was “low nanomolar concentration”.

On to `CCc1c2c(nc3ccc(O)cc13)-c1cc3c(c(=O)n1C2)COC(=O)[C@]3(O)CC` [SN-38], for which the figures for the IC50 in data set [1] (setting [3]), in data set [1] (setting [4]) and in data set [1] (setting [5]) were 7.1 µM, 8 µM and 8.5 µM, respectively.

Consider `CC[C@]1(O)C[C@@H]2CN(CCc3c([nH]c4ccccc34)[C@@](C(=O)OC)(c3cc4c(cc3OC)N(C)[C@H]3[C@@](O)(C(=O)OC)[C@H](OC(C)=O)[C@]5(CC)C=CCN6CC[C@]43[C@@H]65)C2)C1` [Vinblastine, vinblastine], for which the IC50 in data set [1] (setting [6]), in data set [1] (setting [7]) and in data set [1] (setting [8]) was greater than 10 µM throughout.

Consider `CC[C@]1(O)C[C@H]2CN(CCc3c([nH]c4ccccc34)[C@@](C(=O)OC)(c3cc4c(cc3OC)N(C=O)[C@H]3[C@@](O)(C(=O)OC)[C@H](OC(C)=O)[C@]5(CC)C=CCN6CC[C@]43[C@@H]65)C2)C1` [Vincristine, vincristine], for which the half-maximal inhibitory concentration (IC50) in data set [1] (setting [6]), in data set [1] (setting [7]) and in data set [1] (setting [8]) was greater than 10 µM throughout.

On to `C[C@@H]1C[C@@H]([C@H](O)CC2CC(=O)NC(=O)C2)C(=O)[C@@H](C)C1` [cycloheximide], for which the IC50 in data set [1] (Homo sapiens, IMR-90, 24 h, read-out: IC50, 24 hours) was greater than 10 µM; in data set [1] (Homo sapiens, IMR-90, 48 h, read-out: IC50, 48 hours) it was greater than 10 µM; in data set [1] (Homo sapiens, IMR-90, 72 h, read-out: IC50, 72 hours), greater than 10 µM.
